# Test system: 695427-040-R-J1-PDC complex spheroids, viability percent T/C
# Assay: Anticancer human tumor 695427-040-R-J1-PDC patient-derived colon adenocarcinoma cell line growth inhibition [GQUAD]
# Conditions: for IC50: curve of first compound; for viability, T/C: stronger effect = lower value
# Method in brief: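 Viability of tumor cells grown as complex spheroids with endothelial and stromal cells, exposed to drug combinations. Top concentration at or near clinical Cmax (else 10 microM), diluted in half-log increments.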
# [1] = second compound 0.0316 µM, first compound 0.0316 µM
# [2] = second compound 0.0316 µM, first compound 0.1 µM
# [3] = second compound 0.0316 µM, first compound 0.316 µM
# [4] = second compound 0.0316 µM, first compound 1 µM
# [5] = second compound 0.0316 µM, first compound 3.16 µM
# [6] = second compound 0.0316 µM, first compound 10 µM
# [7] = second compound 0.1 µM, first compound 0.0316 µM
# [8] = second compound 0.1 µM, first compound 0.1 µM
# [9] = second compound 0.1 µM, first compound 0.316 µM
# [10] = second compound 0.1 µM, first compound 1 µM
# [11] = second compound 0.1 µM, first compound 3.16 µM
# [12] = second compound 0.1 µM, first compound 10 µM
# [13] = second compound 0.316 µM, first compound 0.0316 µM
# [14] = second compound 0.316 µM, first compound 0.1 µM
# [15] = second compound 0.316 µM, first compound 0.316 µM
# [16] = second compound 0.316 µM, first compound 1 µM
# [17] = second compound 0.316 µM, first compound 3.16 µM
# [18] = second compound 0.316 µM, first compound 10 µM
# [19] = second compound 1 µM, first compound 0.0316 µM
# [20] = second compound 1 µM, first compound 0.1 µM
# [21] = second compound 1 µM, first compound 0.316 µM
# [22] = second compound 1 µM, first compound 1 µM
# [23] = second compound 1 µM, first compound 3.16 µM
# [24] = second compound 1 µM, first compound 10 µM
# [25] = second compound 3.16 µM, first compound 0.0316 µM
# [26] = second compound 3.16 µM, first compound 0.1 µM
# [27] = second compound 3.16 µM, first compound 0.316 µM
# [28] = second compound 3.16 µM, first compound 1 µM
# [29] = second compound 3.16 µM, first compound 3.16 µM
# [30] = second compound 3.16 µM, first compound 10 µM
# [31] = second compound 10 µM, first compound 0.0316 µM
# [32] = second compound 10 µM, first compound 0.1 µM
# [33] = second compound 10 µM, first compound 0.316 µM
# [34] = second compound 10 µM, first compound 1 µM
# [35] = second compound 10 µM, first compound 3.16 µM
# [36] = second compound 10 µM, first compound 10 µM
# 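Note: spheroids exposed to compounds for seven days before readout.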
smiles,measurement,setting,value
COc1cc(C2c3cc4c(cc3C(OC3OC5COC(C)OC5C(O)C3O)C3COC(=O)C23)OCO4)cc(OC)c1O (stereo unspecified) + Cc1cnc(CNC(=O)c2c(=O)c3ccc(N4CCCN(C)CC4)nc3n3c2sc2ccccc23)cn1,IC50,second compound 0.0316 µM,> 10000 nM
same,IC50,second compound 0.1 µM,> 10000 nM
same,IC50,second compound 0.316 µM,> 10000 nM
same,IC50,second compound 1 µM,> 10000 nM
same,IC50,second compound 3.16 µM,< 31.6 nM
same,IC50,second compound 10 µM,< 31.6 nM
same,"viability, T/C",[1],87.3%
same,"viability, T/C",[2],94.9%
same,"viability, T/C",[3],92.7%
same,"viability, T/C",[4],54.4%
same,"viability, T/C",[5],64.1%
same,"viability, T/C",[6],60.3%
same,"viability, T/C",[7],84.8%
same,"viability, T/C",[8],79.2%
same,"viability, T/C",[9],70.3%
same,"viability, T/C",[10],62.9%
same,"viability, T/C",[11],75.5%
same,"viability, T/C",[12],65.2%
same,"viability, T/C",[13],71.3%
same,"viability, T/C",[14],79.2%
same,"viability, T/C",[15],70.5%
same,"viability, T/C",[16],63%
same,"viability, T/C",[17],73%
same,"viability, T/C",[18],69.7%
same,"viability, T/C",[19],47.5%
same,"viability, T/C",[20],74.7%
same,"viability, T/C",[21],71.3%
same,"viability, T/C",[22],59.8%
same,"viability, T/C",[23],70%
same,"viability, T/C",[24],55.7%
same,"viability, T/C",[25],33.4%
same,"viability, T/C",[26],50.7%
same,"viability, T/C",[27],46.3%
same,"viability, T/C",[28],50%
same,"viability, T/C",[29],50.9%
same,"viability, T/C",[30],45.7%
same,"viability, T/C",[31],38.8%
same,"viability, T/C",[32],34.7%
same,"viability, T/C",[33],41.8%
same,"viability, T/C",[34],45.4%
same,"viability, T/C",[35],56%
same,"viability, T/C",[36],36.7%
COc1cccc2c1C(=O)c1c(O)c3c(c(O)c1C2=O)CC(O)(C(=O)CO)CC3OC1CC(N)C(O)C(C)O1 (stereo unspecified) + Cc1cnc(CNC(=O)c2c(=O)c3ccc(N4CCCN(C)CC4)nc3n3c2sc2ccccc23)cn1,IC50,second compound 0.0316 µM,1510 nM
same,IC50,second compound 0.1 µM,1990 nM
same,IC50,second compound 0.316 µM,1920 nM
same,IC50,second compound 1 µM,557 nM
same,IC50,second compound 3.16 µM,< 31.6 nM
same,IC50,second compound 10 µM,< 31.6 nM
same,"viability, T/C",[1],96.5%
same,"viability, T/C",[2],68%
same,"viability, T/C",[3],70%
same,"viability, T/C",[4],56.8%
same,"viability, T/C",[5],38.7%
same,"viability, T/C",[6],40.4%
same,"viability, T/C",[7],86.3%
same,"viability, T/C",[8],70.6%
same,"viability, T/C",[9],85.3%
same,"viability, T/C",[10],62.3%
same,"viability, T/C",[11],45%
same,"viability, T/C",[12],38.4%
same,"viability, T/C",[13],72.2%
same,"viability, T/C",[14],69.8%
same,"viability, T/C",[15],64.9%
same,"viability, T/C",[16],60.4%
same,"viability, T/C",[17],42.4%
same,"viability, T/C",[18],34.4%
same,"viability, T/C",[19],60.2%
same,"viability, T/C",[20],56.8%
same,"viability, T/C",[21],59.6%
same,"viability, T/C",[22],41%
same,"viability, T/C",[23],34.2%
same,"viability, T/C",[24],24.2%
same,"viability, T/C",[25],43.8%
same,"viability, T/C",[26],55.6%
same,"viability, T/C",[27],48%
same,"viability, T/C",[28],28.1%
same,"viability, T/C",[29],28.9%
same,"viability, T/C",[30],14.9%
same,"viability, T/C",[31],32.1%
same,"viability, T/C",[32],45%
same,"viability, T/C",[33],43.5%
same,"viability, T/C",[34],26.4%
same,"viability, T/C",[35],20.2%
same,"viability, T/C",[36],3.89%
Cc1cccc(N(C)C(=O)C2C(O)CCN2c2nc(C)cc(C(F)(F)F)c2C#N)c1 (stereo unspecified) + Cc1cnc(CNC(=O)c2c(=O)c3ccc(N4CCCN(C)CC4)nc3n3c2sc2ccccc23)cn1,IC50,second compound 0.0316 µM,> 10000 nM
same,IC50,second compound 0.1 µM,> 10000 nM
same,IC50,second compound 0.316 µM,> 10000 nM
same,IC50,second compound 1 µM,> 10000 nM
same,IC50,second compound 3.16 µM,< 31.6 nM
same,IC50,second compound 10 µM,< 31.6 nM
same,"viability, T/C",[1],110%
same,"viability, T/C",[2],92.5%
same,"viability, T/C",[3],76.6%
same,"viability, T/C",[4],78.7%
same,"viability, T/C",[5],87.5%
same,"viability, T/C",[6],62.9%
same,"viability, T/C",[7],87%
same,"viability, T/C",[8],80%
same,"viability, T/C",[9],102%
same,"viability, T/C",[10],71%
same,"viability, T/C",[11],87.9%
same,"viability, T/C",[12],79.1%
same,"viability, T/C",[13],72.5%
same,"viability, T/C",[14],78.4%
same,"viability, T/C",[15],51.4%
same,"viability, T/C",[16],74.7%
same,"viability, T/C",[17],77.5%
same,"viability, T/C",[18],69.9%
same,"viability, T/C",[19],62.1%
same,"viability, T/C",[20],57.7%
same,"viability, T/C",[21],57.8%
same,"viability, T/C",[22],56.9%
same,"viability, T/C",[23],83%
same,"viability, T/C",[24],60.7%
same,"viability, T/C",[25],38.8%
same,"viability, T/C",[26],47%
same,"viability, T/C",[27],54.8%
same,"viability, T/C",[28],51.2%
same,"viability, T/C",[29],67.8%
same,"viability, T/C",[30],50.9%
same,"viability, T/C",[31],32.1%
same,"viability, T/C",[32],40%
same,"viability, T/C",[33],46.6%
same,"viability, T/C",[34],47.1%
same,"viability, T/C",[35],59.5%
same,"viability, T/C",[36],42.5%

# From PubChem BioAssay AID2060492 (Molecular Pharmacology Branch, DTP, NCI, 2025)
